Where two headings read alike, the source gives them in different places.
Biological target: recombinant eIF4E (Homo sapiens (Human), UniProt P06730)
Assay: Fluorescence polarization competition assay for eIF4E binding potency
Method in brief: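 IC50 derived from fluorescence polarization over an 8-point, 3-fold compound series after 30 min room-temperature equilibration in the dark. Mix: eIF4E 75 nM pre-bound 5 min to 20 nM EDA-m^7GDP-ATTO-550; buffer 20 mM Tris pH 7.5, 100 mM NaCl, 1 mM DTT, 0.02% Tween-20; DMSO 1%.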

[1] = fluorescence polarization competition, 75 nM recombinant eIF4E, 20 nM EDA-m7GDP-ATTO-550, IC50 class, read-out: elF4E FP
[2] = inhibition of eIF4E/EDA-m7GDP-ATTO-550 binding by 50%, Table 4B calculated values, read-out: IC50

Chain of recombinant eIF4E (P06730 whole entry): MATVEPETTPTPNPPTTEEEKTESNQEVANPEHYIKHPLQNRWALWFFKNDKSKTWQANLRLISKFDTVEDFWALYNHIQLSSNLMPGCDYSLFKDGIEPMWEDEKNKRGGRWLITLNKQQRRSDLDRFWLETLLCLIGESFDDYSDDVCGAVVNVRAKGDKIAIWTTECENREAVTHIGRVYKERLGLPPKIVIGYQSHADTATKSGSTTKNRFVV

IC50 [1] [nM]	IC50 [2] [nM]	Compound
< 50	12.9	N#Cc1cc(C#N)c2c(=O)n(CCOc3ccc(Cl)cc3-c3cccc(C(=O)O)c3)c(CF)nc2c1 [compound 231]
< 50	16.3	C#Cc1c(C(=O)O)cccc1-c1cc(Cl)ccc1OCCn1c(CF)nc2cc(C#N)cc(C#N)c2c1=O [compound 232]
< 50	28.9	CS(=O)(=O)c1cc(C#N)c2c(=O)n(CCOc3ccc(Cl)cc3-c3cccc(C(=O)O)c3)c(CF)nc2c1 [compound 233]
< 50	20.3	Cc1nc2ccc(OC(F)F)c(C#N)c2c(=O)n1CCOc1ccc(Cl)cc1-c1ccnc2c(C(=O)O)csc12 [compound 236]
50 to 1000	54.8	Cc1nc2c(S(=O)(=O)N(C)C)ccc(C#N)c2c(=O)n1CCOc1ccc(Cl)cc1-c1ccnc2c(C(=O)O)csc12 [compound 237]
< 50	38	CNS(=O)(=O)c1ccc(C#N)c2c(=O)n(CCOc3ccc(Cl)cc3-c3ccnc4c(C(=O)O)csc34)c(C)nc12 [compound 238]
< 50	28.6	Cc1nc2cc(C#N)c(Cl)c(C#N)c2c(=O)n1CCOc1ccc(Cl)cc1-c1ccnc2c(C(=O)O)csc12 [compound 239]
< 50	9.78	Cc1nc2cc(C#N)c(F)c(C#N)c2c(=O)n1CCOc1ccc(Cl)cc1-c1ccnc2c(C(=O)O)csc12 [compound 240]
< 50	4.87	Cc1nc2c(F)cc(F)c(C#N)c2c(=O)n1CCOc1ccc(Cl)cc1-c1ccnc2c(C(=O)O)csc12 [compound 241]
< 50	20.3	Cc1nc2cc(Cl)c(F)c(C#N)c2c(=O)n1CCOc1ccc(Cl)cc1-c1ccnc2c(C(=O)O)csc12 [compound 242]
< 50	31.2	Cc1nc2ccc(Cl)c(C#N)c2c(=O)n1CCOc1ccc(Cl)cc1-c1ccnc2c(C(=O)O)csc12 [compound 244]
< 50	25.6	Cc1nc2ccc(F)c(C#N)c2c(=O)n1CCOc1ccc(Cl)cc1-c1ccnc2c(C(=O)O)csc12 [compound 245]
< 50	43	Cc1nc2cc(C(F)(F)F)c(F)c(C#N)c2c(=O)n1CCOc1ccc(Cl)cc1-c1ccnc2c(C(=O)O)csc12 [compound 246]
50 to 1000	61.1	Cc1nc2cc(Cl)c(S(=O)(=O)N(C)C)c(C#N)c2c(=O)n1CCOc1ccc(Cl)cc1-c1ccnc2c(C(=O)O)csc12 [compound 247]
50 to 1000	52.3	Cc1nc2ccc(S(=O)(=O)N3CCC3)c(C#N)c2c(=O)n1CCOc1ccc(Cl)cc1-c1ccnc2c(C(=O)O)csc12 [compound 248]
< 50	19.8	Cc1nc2ccc(S(=O)(=O)N3CCCC3)c(C#N)c2c(=O)n1CCOc1ccc(Cl)cc1-c1ccnc2c(C(=O)O)csc12 [compound 249]
< 50	43.7	CCN(CC)S(=O)(=O)c1ccc2nc(C)n(CCOc3ccc(Cl)cc3-c3ccnc4c(C(=O)O)csc34)c(=O)c2c1C#N [compound 250]
< 50		Cc1nc2ccc(S(=O)(=O)N3CCCCC3)c(C#N)c2c(=O)n1CCOc1ccc(Cl)cc1-c1ccnc2c(C(=O)O)csc12 [compound 251]
< 50	42	Cc1nc2ccc(S(=O)(=O)NCc3ccccc3)c(C#N)c2c(=O)n1CCOc1ccc(Cl)cc1-c1ccnc2c(C(=O)O)csc12 [compound 252]
< 50	46	CCN(Cc1ccccc1)S(=O)(=O)c1ccc2nc(C)n(CCOc3ccc(Cl)cc3-c3ccnc4c(C(=O)O)csc34)c(=O)c2c1C#N [compound 253]
< 50	20.4	Cc1nc2cccc(C#N)c2c(=O)n1CCOc1ccc(Cl)cc1-c1ccnc2c(C(=O)O)csc12 [compound 254]

IC50 [1] [nM]	IC50 [2] [nM]	Compound
50 to 1000	78.5	Cc1nc2cc(C(F)(F)F)cc(C#N)c2c(=O)n1C/C=C/c1ccc(Cl)cc1-c1ccnc2c(C(=O)O)csc12 [compound 255]
50 to 1000	104	Cc1nc2cc(Cl)c(Cl)c(C#N)c2c(=O)n1C/C=C/c1ccc(Cl)cc1-c1ccnc2c(C(=O)O)csc12 [compound 256]
50 to 1000	69.2	Cc1nc2cc(Cl)c(Cl)c(C#N)c2c(=O)n1CC#Cc1ccc(Cl)cc1-c1ccnc2c(C(=O)O)csc12 [compound 257]
< 50	37.7	Cc1nc2cc(C#N)cc(C#N)c2c(=O)n1CC#Cc1ccc(Cl)cc1-c1ccnc2c(C(=O)O)csc12 [compound 258]
50 to 1000	> 1000	Cc1nc2cc(C(F)(F)F)cc(C#N)c2c(=O)n1CCOc1ncc(Cl)cc1-c1ccnc2c(C(=O)O)csc12 [compound 259]
< 50	20.4	Cc1nc2cnc(C3CCC(F)(F)CC3)c(C#N)c2c(=O)n1CCOc1ccc(Cl)cc1-c1ccnc2c(C(=O)O)csc12 [compound 260]
< 50	42	Cc1nc2cc(C(F)(F)F)c(CN(C)C)c(C#N)c2c(=O)n1CCOc1ccc(Cl)cc1-c1ccnc2c(C(=O)O)csc12 [compound 261]
< 50		Cc1c(F)c2cc(C(F)(F)F)cc(C#N)c2c(=O)n1CCOc1ccc(Cl)cc1-c1ccnc2c(C(=O)O)csc12 [compound 262]
< 50		Cc1c(C#N)c2cc(C(F)(F)F)cc(C#N)c2c(=O)n1CCOc1ccc(Cl)cc1-c1ccnc2c(C(=O)O)csc12 [compound 263]
< 50	24.6	Cc1nc2cc(C(F)(F)Cl)cc(C#N)c2c(=O)n1CCOc1ccc(Cl)cc1-c1ccnc2c(C(=O)O)csc12 [compound 264]
50 to 1000	77.1	Cc1nc2cc(C(F)(F)F)cc(C#N)c2c(=O)n1CCOc1ccc(Cl)cc1-c1snc2c(C(=O)O)csc12 [compound 265]
< 50	26.6	Cc1nc2cc(C(F)(F)F)cc(C#N)c2c(=O)n1CCOc1ccc(Cl)cc1-c1ccnc2c(C(=O)O)c(Cl)sc12 [compound 266]
50 to 1000	74.1	C#Cc1sc2c(-c3cc(Cl)ccc3OCCn3c(C)nc4cc(C(F)(F)F)cc(C#N)c4c3=O)ccnc2c1C(=O)O [compound 267]
< 50	34.1	Cc1c(C(F)(F)F)c2cc(C(F)(F)F)cc(C#N)c2c(=O)n1CCOc1ccc(Cl)cc1-c1ccnc2c(C(=O)O)csc12 [compound 268]
< 50	15.6	Cc1c(C(F)F)c2cc(C(F)(F)F)cc(C#N)c2c(=O)n1CCOc1ccc(Cl)cc1-c1ccnc2c(C(=O)O)csc12 [compound 269]
< 50		Cc1c([N+](=O)O)c2cc(C(F)(F)F)cc(C#N)c2c(=O)n1CCOc1ccc(Cl)cc1-c1ccnc2c(C(=O)O)csc12 [compound 270]
< 50	13.2	Cc1nc2cc(C(F)(F)F)cc([N+](=O)[O-])c2c(=O)n1CCOc1ccc(Cl)cc1-c1ccnc2c(C(=O)O)csc12 [compound 271]
< 50	30.2	Cc1c(F)c2cc(C#N)cc(C#N)c2c(=O)n1CCOc1ccc(Cl)cc1-c1ccnc2c(C(=O)O)csc12 [compound 273]
< 50	18.8	C=S(C)(=O)c1cc(C#N)c2c(=O)n(CCOc3ccc(Cl)cc3-c3ccnc4c(C(=O)O)csc34)c(C)c(F)c2c1 (stereo not drawn) [compound 274]
< 50	22.8	Cc1nc2cc(F)c(C#N)c(C#N)c2c(=O)n1CCOc1ccc(Cl)cc1-c1ccnc2c(C(=O)O)csc12 [compound 276]

— US11286268B1, “EIF4E-inhibiting compounds and methods” (EFFECTOR THERAPEUTICS, INC., priority 2019, dated 2022)
